The record followed here is PubChem BioAssay (NCI).

Among the test systems are EKVX NSCLC; SR leukemia; MDA-MB-435; SW-620 colon; CAKI-1 renal; MCF7 breast; OVCAR-5 ovarian; T-47D breast; RPMI-8226 leukemia; NCI-H226 lung.
What all share (test): NCI anticancer screen, dose series, 48 h

Values joined by “and” are separate entries in the source; they are usually repeats but may differ in a detail not shown here. Equal values may be shown once.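 Protocol summary: plate cells (96-well), add compound at 5 concentrations, incubate 48 h, interpolate endpoints linearly. GI50: concentration for 50% inhibition of growth. TGI is the concentration that stops growth completely.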

In the case of `CC(C)(C)N/N=C(/Cc1nc2c3c(ccc2[nH]c1=O)C(=O)c1ccccc1C3=O)C(=O)NC1=C(Cl)C(=O)c2ccccc2C1=O`, the TGI in the assay with EKVX NSCLC, in the assay with SR leukemia, in the assay with MDA-MB-435, with SW-620 colon, with CAKI-1 renal and in the assay on MCF7 breast was above 100 µM in each case. Moreover, the TGI was above 100 µM with OVCAR-5 ovarian, above 100 µM in the assay with T-47D breast, above 100 µM in the assay with RPMI-8226 leukemia and 88.8 µM in the assay with NCI-H226 lung.
Regarding `[Br][Pb]([c]1ccccc1)([c]1ccccc1)[c]1ccccc1`, the GI50 in the assay with EKVX NSCLC was 0.183 µM; in the assay on SR leukemia it was 0.103 µM; in the assay on MDA-MB-435, 0.19 µM; in the assay on SW-620 colon it was 0.163 µM; with CAKI-1 renal it was 0.2 µM; with MCF7 breast, 0.159 µM. The GI50 in the assay with OVCAR-5 ovarian is 0.289 µM; in the assay on T-47D breast it was 0.143 µM; in the assay on RPMI-8226 leukemia, 0.179 µM; with NCI-H226 lung, 0.173 µM. The TGI in the assay on EKVX NSCLC was 0.439 µM; in the assay on SR leukemia, above 100 µM; with MDA-MB-435 it was 0.435 µM; in the assay with SW-620 colon, 0.3 µM; in the assay with CAKI-1 renal, 0.454 µM; in the assay on MCF7 breast it was 0.303 µM. Moreover, the TGI is 1.22 µM in the assay on OVCAR-5 ovarian, 0.318 µM in the assay on T-47D breast, 0.681 µM in the assay on RPMI-8226 leukemia and 0.381 µM in the assay on NCI-H226 lung.
For the compound `CC1(C)CC(O)CC(C)(C)N1O`, the TGI in the assay with EKVX NSCLC, with SR leukemia, in the assay on MDA-MB-435, in the assay on SW-620 colon, in the assay with CAKI-1 renal and with MCF7 breast was above 100 µM in each case. Moreover, the TGI in the assay on OVCAR-5 ovarian, in the assay on T-47D breast, with RPMI-8226 leukemia and in the assay on NCI-H226 lung was above 100 µM in each case. Besides, the GI50 with NCI-H226 lung is above 100 µM.
As to `Cc1nc2c(C)ccc([N+](=O)[O-])c2c(NCCCN(C)C)c1C`, the TGI in the assay with EKVX NSCLC was above 100 µM; in the assay on SR leukemia it was above 100 µM; in the assay on MDA-MB-435 it was above 100 µM; in the assay with SW-620 colon, above 53 µM; with CAKI-1 renal it was above 100 µM; in the assay with MCF7 breast it was above 100 µM. Further, the TGI with OVCAR-5 ovarian, with T-47D breast, in the assay on RPMI-8226 leukemia and in the assay on NCI-H226 lung was above 100 µM in each case.
As to `COc1cccc(/C=C2\N=C(c3ccccc3)OC2=O)c1`, the TGI in the assay with EKVX NSCLC is above 100 µM; with SR leukemia it was 65.2 µM; in the assay on MDA-MB-435, above 100 µM; in the assay on SW-620 colon, above 100 µM; in the assay with CAKI-1 renal, above 100 µM; in the assay with MCF7 breast, above 100 µM. Further, the TGI is above 100 µM with OVCAR-5 ovarian, above 100 µM with T-47D breast, 94.1 µM in the assay with RPMI-8226 leukemia and above 100 µM in the assay with NCI-H226 lung.
As for `O=[N+]([O-])c1ccccc1N=Nc1c(O)[nH]c2c(Cl)cccc12`, the TGI in the assay on EKVX NSCLC was above 61.5 µM; with SR leukemia, above 69.6 µM; with MDA-MB-435 it was above 100 µM; in the assay with SW-620 colon it was above 79 µM; in the assay on CAKI-1 renal, 26.3 µM; in the assay with MCF7 breast, above 89.6 µM. Moreover, the TGI was above 100 µM in the assay with OVCAR-5 ovarian, above 75 µM in the assay on T-47D breast, 96.2 µM in the assay on RPMI-8226 leukemia and above 78.2 µM in the assay on NCI-H226 lung.
Consider `NNc1c(C(N)=O)c2c(N)ncnc2n1C1OC(CO)C(O)C1O` (centres undefined), for which the GI50 was 0.208 µM in the assay on EKVX NSCLC; 0.0252 µM with SR leukemia; 0.0346 µM and 0.0483 µM with MDA-MB-435; below 0.0124 µM in the assay on SW-620 colon; 0.0171 µM and < 0.0167 µM in the assay with CAKI-1 renal; 0.0729 µM in the assay on MCF7 breast. Moreover, the GI50 with OVCAR-5 ovarian was 0.0578 µM and 0.309 µM; in the assay with RPMI-8226 leukemia, 0.0404 µM and 0.0364 µM; in the assay with NCI-H226 lung, 0.251 µM. The TGI in the assay on EKVX NSCLC is 0.841 µM and 4.36 µM; in the assay with SR leukemia, 0.0194 µM and 0.0639 µM; in the assay on MDA-MB-435, 0.148 µM and 0.265 µM; in the assay with SW-620 colon, 0.992 µM and 0.241 µM; in the assay with CAKI-1 renal, 0.826 µM and 0.909 µM; with MCF7 breast, 0.179 µM and 1.29 µM. The TGI was 1.1 µM and 7.56 µM with OVCAR-5 ovarian; 0.104 µM and 0.14 µM with T-47D breast; 0.221 µM and 0.143 µM in the assay with RPMI-8226 leukemia.
For `CC(C)=C[C@@H]1C[C@H](C)[C@H]2CC[C@H](C)c3c(O)c(OC4OC(C)C(O)C(O)C4O)c(C)c1c32` (some centres undefined), the GI50 with EKVX NSCLC is 19.3 µM; in the assay with SR leukemia it was 2.59 µM; with MDA-MB-435, 13.6 µM; in the assay with SW-620 colon, 4.66 µM; in the assay on CAKI-1 renal, 14.5 µM; with MCF7 breast, 13.9 µM. For the same compound, the GI50 in the assay on OVCAR-5 ovarian was 10.5 µM; in the assay with T-47D breast, 12.5 µM; with RPMI-8226 leukemia, 12.5 µM; in the assay on NCI-H226 lung, 17.3 µM. For the same compound, the TGI turned out to be 34.2 µM in the assay on EKVX NSCLC; 10.4 µM in the assay on SR leukemia; 27.2 µM in the assay with MDA-MB-435; 16.3 µM in the assay on SW-620 colon; 28.7 µM in the assay with CAKI-1 renal; 27.7 µM in the assay on MCF7 breast. Besides, the TGI turned out to be 23.2 µM with OVCAR-5 ovarian, 26.5 µM with T-47D breast, 27.6 µM with RPMI-8226 leukemia and 33.1 µM in the assay on NCI-H226 lung.
Regarding `S=c1ssnc1-c1cc2ccccc2o1`, the GI50 with EKVX NSCLC is 11.8 µM; in the assay on SR leukemia, 3.04 µM; in the assay with MDA-MB-435, 11.6 µM; with SW-620 colon, 12.7 µM; in the assay on CAKI-1 renal, 10 µM; with MCF7 breast it was 9.55 µM. Also, the GI50 was 20.8 µM in the assay on OVCAR-5 ovarian, 21.9 µM with T-47D breast, 2.36 µM with RPMI-8226 leukemia and 23.2 µM in the assay on NCI-H226 lung. In addition, the TGI came to 30.8 µM in the assay with EKVX NSCLC; 18.3 µM in the assay on SR leukemia; 32 µM in the assay with MDA-MB-435; 27.6 µM in the assay on SW-620 colon; 26.1 µM in the assay with CAKI-1 renal; 32.1 µM in the assay on MCF7 breast. The TGI with OVCAR-5 ovarian is 39.2 µM; in the assay with T-47D breast it was above 100 µM; in the assay on RPMI-8226 leukemia, 25.7 µM; with NCI-H226 lung it was 54.4 µM.
